Where two headings read alike, the source gives them in different places.
Assays:
Format in all cases: in vivo
[1] = test system: cat flea (Ctenocephalides felis); test: whole plant or invertebrate; settings: Ctenocephalides felis
How it was run: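 Adult C. felis (3-7 days post-emergence; 15 per flask, at least 4 replicates) exposed to a glass flask base dried 24 h after coating with compound in acetone at 1.26 μg/cm^2. Held at 25±1 °C, 75±5% humidity; mortality (immobile or unable to right) scored at 8, 24 and/or 48 h as percentage.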

[2] = test system: Brown Dog Tick (Rhipicephalus sanguineus); test: Rapid screening protocol for topical application on brown dog ticks; settings: for R. sanguineus Mortality (%) 48 h: Laboratory 2 F data
Description: d) Rapid Screening Protocol for Topical Application on Brown Dog Ticks (Rhipicephalus sanguineus)
The aim of the test was to determine the presence of significant acaricidal activity in sample compounds or formulations when applied topically on brown dog ticks. A tick was defined as dead if it gave no apparent response when touched lightly and observed for 1 minute. […] Both permethrin and fipronil were employed as reference compounds. The insect species tested was the Brown Dog Tick (Rhipicephalus sanguineus). Mixed sex adult ticks were used for tests. The strain used was cultured by von Berky Veterinary Services, Woody Point, QLD, AU and supplied as unfed adult ticks (mixed sex). Ticks were maintained in controlled conditions (temp. 18°+2° C., humidity 75±5% RH).
Temperature was maintained at 25±1° C. and the humidity was ambient. […] Ticks were each treated on the abdomen with 1 μL of a single dose level of test sample in acetone; ten ticks were treated with solvent only (acetone) in each test. Tests were replicated 4 times (total of 40 ticks treated). […]

[3] = test system: cat flea (Ctenocephalides felis); test: Ctenocephalides felis adulticide assay: dose response (LC50)
Source text: c) Ctenocephalides felis Adulticide Assay: C. felis Dose Response
The purpose of this example was to determine the LC50 when cat fleas were contacted with a glass surface treated with sample compounds or formulations prepared as described above. Mortality of fleas was defined as follows: fleas were considered dead if they didn't move or were on their sides and unable to walk or right themselves. LC50: Lethal Concentration 50—concentration of glass surface treatment at which 50% of the cat fleas were killed. The test species was the cat flea (Ctenocephalides felis). The strain used was obtained from external suppliers as pupae and held in the laboratory under testing conditions until the adults had emerged. Fifteen (15) fleas were used in a minimum of four replicates for each dose level (total of 60 fleas per dose level). The insects were selected to be in the adult life stage, aged between 3 and 7 days post emergence.
The compounds to be tested were dissolved in acetone just prior to testing. Samples of compounds were stored in a refrigerator (5±1° C.) unless otherwise specified. During the mortality testing, the temperature was maintained at 25+1° C. Humidity was maintained at 75±5%. The base (area=159 mm^2) of a 100 mL glass Erlenmeyer (conical) flask provided the treatment surface. Flasks were pretreated with Coatasil™ glass treatment to maximise bio-availability of test compounds by preventing them from binding to the glass surface.
Six dose levels (concentrations) of test sample, in the form of a serial dilution, were derived from a pilot study and covered a range that produced very low to very high mortality. The base of the 100 mL Erlenmeyer flask was treated with 0.5 mL of test sample in acetone and gently swirled. This volume was sufficient to cover the base of the flask. Flasks were left to dry for 24 hours before flea exposure. Adult cat fleas were lightly anaesthetised by cooling and then placed into a sorting chamber, which allowed fleas to revive and jump into the Erlenmeyer flasks. Fifteen (15)adult cat fleas were collected in each flask. The top of the flasks were then covered in Parafilm™ and small holes made to allow gas exchange. A 0.5 mL volume of acetone was applied to the base of an Erlenmeyer flask and the testing proceeded in the same manner described above. Cat fleas in the treatment containers were held under testing conditions for 24 hours. Mortality resulting from the treatments was recorded at 8 and 24 hours.

Haemonchus contortus = Haemonchus contortus larvacidal (larval development) assay; settings: 144 h, read-out: Haemonchus contortus LD99
Description: a) Haemonchus Contortus Larvacidal Assay:
The effect of compounds on larval development was determined in the assay described by Gill et al. (1995, International Journal of Parasitology 25:463-470). Briefly, in this assay, nematode eggs were applied to the surface of an agar matrix containing the test compound and then allowed to develop through to the L3, infective stage (6 days). The wells for each dilution of every compound (from highest to lowest concentration) were inspected to determine the well number corresponding to the lowest concentration at which development was inhibited in 99% of the nematode larvae present (LD99). Because well numbers correspond to a two-fold serial dilution of each compound, a titre (dilution factor) is generated as 2^n−1, where n is the well number. By dividing the highest concentration tested by the titre an LD99 value can be obtained, representing the concentration required to inhibit development in 99% of the nematode larvae present. The compounds supplied as solid and viscous liquids were dissolved in DMSO. Twelve serial one-half dilutions in DMSO solution were prepared from the stock solution, each of which was then diluted ⅕ with water. Aliquots (10 μl) of each dilution were transferred to the bioassay plates to give a final concentration range of 0.024 to 50 μg/ml.

[4] = 8 h, read-out: C. felis Mortality (%) 8 h, 8 h, Laboratory 2 B data
[5] = 24 h, read-out: C. felis Mortality (%) 24 h, 24 h, Laboratory 2 B data
[6] = 24 h, read-out: C. felis Mortality (%) 24 h, 24 h, Laboratory 1 A data
[7] = 8 h, read-out: C. felis Mortality (%) 8 h, 8 h, Laboratory 1 A data

Row | Compound | mortality at 1.26 µg/cm2, 1.26 µg/cm2 [1, 6] | C. felis LC50 ([3]; Laboratory 1 C data) | IC99 (Haemonchus contortus) | other results
1 | C/C(=N\OCc1ccc(C(F)(F)F)cc1)c1ccc(C(F)(F)F)cc1NS(=O)(=O)C(F)(F)F [Compound 219] | – | – | – | mortality at 1.26 µg/cm2, 1.26 µg/cm2 [1, 4]: 69%; mortality at 1.26 µg/cm2, 1.26 µg/cm2 [1, 5]: 100%; R. sanguineus Mortality (%) 48 h [2]: 60%
2 | C/C(=N\OCC(C)C)c1cc(Cl)ccc1NS(=O)(=O)C(F)(F)F [Compound 172] | 100% | 0.06 μg/cm^2 | – | –
3 | C/C(=N\OCC1CCCCC1)c1ccc(C(F)(F)F)cc1NS(=O)(=O)C(F)(F)F [Compound 217] | – | – | – | mortality at 1.26 µg/cm2, 1.26 µg/cm2 [1, 4]: 46%; mortality at 1.26 µg/cm2, 1.26 µg/cm2 [1, 5]: 90%; R. sanguineus Mortality (%) 48 h [2]: 30%
4 | CC(=O)N(c1ccc(Cl)cc1/C(C)=N/Oc1ccc(F)cc1)S(=O)(=O)C(F)(F)F [Compound 308] | – | – | – | mortality at 1.26 µg/cm2 ([1]; 8 h, read-out: Ctenocephalides felis Mortality (%) 8 h): 29%; mortality at 1.26 µg/cm2 ([1]; 24 h, read-out: Ctenocephalides felis Mortality (%) 24 h): 100%; Rhipicephalus sanguineus Mortality (%) 24 h ([2]; 24 h, topical, 10 μg of active per tick in 1 μL acetone, adult ticks, Laboratory 1 E data): 7%
5 | CCC(O/N=C(\C)c1cc(Cl)ccc1NS(=O)(=O)C(F)(F)F)c1ccccc1 (stereo not drawn) [Compound 255] | – | – | – | mortality at 1.26 µg/cm2, 1.26 µg/cm2 [1, 4]: 1%; mortality at 1.26 µg/cm2, 1.26 µg/cm2 [1, 5]: 100%; mortality at 5 µg/tick ([2]; Rhipicephalus sanguineus, topical, 24 h, read-out: R. sanguineus Mortality (%) 24 h): 22%
6 | O=S(=O)(Nc1ccc(Cl)cc1/C(=N/OC1CCCCC1)C1CCCCC1)C(F)(F)F [Compound 212] | – | – | – | mortality at 1.26 µg/cm2, 1.26 µg/cm2 [1, 4]: 24%; mortality at 1.26 µg/cm2, 1.26 µg/cm2 [1, 5]: 100%; R. sanguineus Mortality (%) 48 h [2]: 57%
7 | CC/C(=N\OCC(C)C)c1cc(Cl)ccc1NS(=O)(=O)C(F)(F)F [Compound 159] | 100% | 0.2 μg/cm^2 | – | –
8 | C/C(=N\OC1CCCC1)c1cc(Cl)ccc1NS(=O)(=O)C(F)(F)F [Compound 163, N-[4-chloro-2-(1-cyclopentyloxyiminoethyl)phenyl]trifluoromethanesulfonamide] | 100% | 0.1 μg/cm^2 | – | –
9 | C/C(=N\OC(C)C)c1cc(Cl)ccc1NS(=O)(=O)C(F)(F)F [Compound 158] | 100% | 0.2 μg/cm^2 | – | –
10 | CC/C(=N\OCc1cccc(Cl)c1Cl)c1cc(Cl)ccc1NS(=O)(=O)C(F)(F)F [Compound 72] | 63% | 0.5 μg/cm^2 | 0.3 µg/mL | mortality at 1.26 µg/cm2, 1.26 µg/cm2 [1, 7]: 13%
11 | CC/C(=N\OCC1CCCC1)c1cc(Cl)ccc1NS(=O)(=O)C(F)(F)F [Compound 197] | – | – | – | mortality at 1.26 µg/cm2, 1.26 µg/cm2 [1, 4]: 80%; mortality at 1.26 µg/cm2, 1.26 µg/cm2 [1, 5]: 97%; R. sanguineus Mortality (%) 48 h [2]: 100%
12 | C/C(=N\OCC1CCCO1)c1cc(Cl)ccc1NS(=O)(=O)C(F)(F)F (stereo not drawn) [Compound 203] | – | – | – | mortality at 1.26 µg/cm2, 1.26 µg/cm2 [1, 4]: 98%; mortality at 1.26 µg/cm2, 1.26 µg/cm2 [1, 5]: 98%; R. sanguineus Mortality (%) 48 h [2]: 95%
13 | CC/C(=N\Oc1ccc(F)cc1)c1ccc(C(F)(F)F)cc1NS(=O)(=O)C(F)(F)F [Compound 214] | – | – | – | mortality at 1.26 µg/cm2, 1.26 µg/cm2 [1, 4]: 98%; mortality at 1.26 µg/cm2, 1.26 µg/cm2 [1, 5]: 100%; R. sanguineus Mortality (%) 48 h [2]: 20%
14 | CC/C(=N\OC1C=CCCC1)c1cc(Cl)ccc1NS(=O)(=O)C(F)(F)F (stereo not drawn) [Compound 170] | 97% | 0.2 μg/cm^2 | – | –
15 | CC/C(=N\OCc1ccc(Cl)c(Cl)c1)c1cc(Cl)ccc1NS(=O)(=O)C(F)(F)F [Compound 79] | 100% | 0.6 μg/cm^2 | 0.6 µg/mL | mortality at 1.26 µg/cm2, 1.26 µg/cm2 [1, 7]: 73%
16 | O=S(=O)(Nc1ccc(Cl)cc1/C(=N/OC1CCCC1)C1CCCCC1)C(F)(F)F [Compound 211] | – | – | – | mortality at 1.26 µg/cm2, 1.26 µg/cm2 [1, 4]: 46%; mortality at 1.26 µg/cm2, 1.26 µg/cm2 [1, 5]: 100%; R. sanguineus Mortality (%) 48 h [2]: 90%
17 | CC/C(=N\OC(CC)CC)c1cc(Cl)ccc1NS(=O)(=O)C(F)(F)F [Compound 171] | 100% | 0.4 μg/cm^2 | – | –
18 | C=CCO/N=C(\C)c1cc(Cl)ccc1NS(=O)(=O)C(F)(F)F [Compound 181] | 100% | 0.1 μg/cm^2 | – | –
19 | CC/C(=N\Oc1ccc(Cl)c(Cl)c1)c1cc(Cl)ccc1NS(=O)(=O)C(F)(F)F [Compound 139] | 64% | – | 0.9 µg/mL | C. felis LC50 ([3]; Laboratory 2 D data): 0.3^D μg/cm^2
20 | CC/C(=N\OCCOc1ccccc1)c1cc(Cl)ccc1NS(=O)(=O)C(F)(F)F [Compound 106] | 48% | 1.0 μg/cm^2 | 11 µg/mL | –
21 | CC/C(=N\OCc1ccccc1Cl)c1cc(Cl)ccc1NS(=O)(=O)C(F)(F)F [Compound 10] | 73% | 0.3 μg/cm^2 | 2.7 µg/mL | mortality at 1.26 µg/cm2, 1.26 µg/cm2 [1, 7]: 56%
22 | CC/C(=N\Oc1cccc(Cl)c1)c1cc(Cl)ccc1NS(=O)(=O)C(F)(F)F [Compound 131] | 100% | 0.7 μg/cm^2 | 1.6 µg/mL | –
23 | CCC/C(=N\OCc1ccc(Cl)cc1Cl)c1cc(Cl)ccc1NS(=O)(=O)C(F)(F)F [Compound 100, N-{4-chloro-2-[1-(2,4-dichlorobenzyloxyimino)butyl]}trifluoromethanesulfonamide] | 88% | 0.4 μg/cm^2 | 1.8 µg/mL | mortality at 1.26 µg/cm2, 1.26 µg/cm2 [1, 7]: 58%
24 | O=S(=O)(Nc1ccc(Cl)cc1/C(=N/OCc1ccc(C(F)(F)F)cc1)c1ccccc1)C(F)(F)F [Compound 24] | 43% | – | 2.5 µg/mL | C. felis LC50 ([3]; Laboratory 2 D data): 0.8^D μg/cm^2
25 | CC/C(=N\OCc1ccc(Cl)cc1Cl)c1cc(Cl)ccc1NS(=O)(=O)C(F)(F)F [Compound 74] | – | 0.2 μg/cm^2 | 0.4 µg/mL | mortality at 1.26 µg/cm2, 1.26 µg/cm2 [1, 7]: 94%
26 | C/C(=N\OC1CCCCC1)c1cc(Cl)ccc1NS(=O)(=O)C(F)(F)F [Compound 161] | 100% | 0.2 μg/cm^2 | – | –
27 | C/C(=N\Oc1ccc(Cl)cc1)c1cc(Cl)ccc1NS(=O)(=O)C(F)(F)F [Compound 127] | 90% | 0.3 μg/cm^2 | 0.4 µg/mL | –
28 | C/C(=N\Oc1cccc(C(F)(F)F)c1)c1cc(Cl)ccc1NS(=O)(=O)C(F)(F)F [Compound 134, N-{4-chloro-2-[1-(3-trifluoromethylphenoxyimino)ethyl]phenyl}trifluoromethanesulfonamide] | 96% | 0.4 μg/cm^2 | 0.4 µg/mL | –
29 | C/C(=N\OC(C)c1ccc(Cl)cc1)c1cc(Cl)ccc1NS(=O)(=O)C(F)(F)F (stereo not drawn) [Compound 123] | – | 1.2 μg/cm^2 | 0.9 µg/mL | mortality at 1.26 µg/cm2, 1.26 µg/cm2 [1, 7]: 11%; C. felis LC50 ([3]; Laboratory 2 D data): 0.3 μg/cm^2

From patent publication US7312248B2, “Control of parasites in animals by the use of novel trifluoromethanesulfonanilide oxime ether derivatives” (Schering-Plough Animal Health Corporation, priority 2004, dated 2007)
